Results on one compound are retold here after US10863748B2, “Antibacterial products and processes for preparing antibacterial products from maple syrup” (priority 2016, dated 2020).

This experiment deals with three bacteria and one yeast. The experiment can be described thus: Antimicrobial effect of melamine per se. Format: cell-based.

As to `Nc1nc(N)nc(N)n1` [melamine, 2,4,6-triamino-1,3,5-triazine], the antimicrobial effect result is given as “did not exhibit any antimicrobial effect”.
